Key:
[1] = target: human FLAP (Homo sapiens (Human), UniProt P20292); experiment: FLAP binding assay (HTRF format); conditions: wild type FLAP, HTRF format
Procedure, shortened: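 Read-out is the HTRF ratio. Each reported figure averages two assay plates on which samples were tested in duplicate.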

[2] = test system: leukotriene pathway in human whole blood (LTB4 levels); experiment: Human whole blood assay (A23187-stimulated LTB4); format: cell-based; conditions: Homo sapiens, human whole blood diluted 1:1, A23187-stimulated; read-out: LTB4 IC50 1:1
Procedure, shortened: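 Single-replicate data from at least one healthy donor: compound pre-incubated 15 min at 37° Celsius in 1:1 RPMI-diluted heparinised blood, followed by 30 min calcium ionophore A23187 (7 μg/mL) challenge at 37° Celsius. LTB4 in plasma quantified by kit; IC50 via 4-parameter equation.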

Sequence of human FLAP (P20292 whole entry): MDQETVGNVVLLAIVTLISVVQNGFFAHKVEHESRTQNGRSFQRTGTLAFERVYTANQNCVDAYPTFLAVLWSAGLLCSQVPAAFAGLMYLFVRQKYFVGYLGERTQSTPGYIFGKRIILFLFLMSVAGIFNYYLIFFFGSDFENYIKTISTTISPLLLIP

SMILES | Ki [1] [nM] | IC50 [2] [nM]
Nc1ncc(-c2ccc(-c3ccc(C(F)(F)F)cc3Oc3ccnc(N)n3)cn2)cn1 [Example 565, 4-{2-[6-(2-Aminopyrimidin-5-yl)pyridin-3-yl]-5-(trifluoromethyl)phenoxy}pyrimidin-2-amine] | 81 | 984
CC(C)(C)NS(=O)(=O)c1ccccc1-c1ccc(-c2cnc(N)cn2)cc1 [Example 571, 4′-(5-Aminopyrazin-2-yl)-N-tert-butylbiphenyl-2-sulfonamide] | 2 | 91
CC(C)(C)NS(=O)(=O)c1ccccc1-c1ccc(-c2cnc(N)cn2)cc1F [Example 574, 4′-(5-Aminopyrazin-2-yl)-N-tert-butyl-2′-fluorobiphenyl-2-sulfonamide] | 15 | 494
COc1cccc2nc(-c3ccc(-c4ccccc4S(=O)(=O)NC(C)(C)C)cc3F)cn12 [Example 588, N-tert-Butyl-3′-fluoro-4′-(5-methoxyimidazo[1,2-a]pyridin-2-yl)biphenyl-2-sulfonamide] | 133 | > 10000
Nc1cnc(-c2ccc(-c3ccc(C(F)(F)F)cc3C(=O)O)cc2F)cn1 [Example 603, 4′-(5-Aminopyrazin-2-yl)-3′-fluoro-4-(trifluoromethyl)biphenyl-2-carboxylic acid] | 27.6 | > 10000
Nc1cnc(-c2ccc(-c3ccc(C(F)(F)F)cc3C=O)cc2F)cn1 [Example 604, 4′-(5-Aminopyrazin-2-yl)-3′-fluoro-4-(trifluoromethyl)biphenyl-2-carbaldehyde] | 5 | 89.4
Nc1cnc(-c2ccc(-c3ccc(C(F)(F)F)cc3CN3CCC(N)CC3)cc2F)cn1 [Example 606, 5-{2′-[(4-Aminopiperidin-1-yl)methyl]-3-fluoro-4′-(trifluoromethyl)biphenyl-4-yl}pyrazin-2-amine] | 46.3 | 2620
Cc1cc(C)nc(Oc2ccccc2-c2ccc(-c3cnc(N)nc3)c(F)c2)n1 [Example 609, 5-{2′-[(4,6-Dimethylpyrimidin-2-yl)oxy]-3-fluorobiphenyl-4-yl}pyrimidin-2-amine] | 246 | 768
Nc1cnc(-c2ccc(-c3ccccc3Oc3ccnc(C(F)(F)F)c3)cc2F)cn1 [Example 610, 5-(3-Fluoro-2′-{[2-(trifluoromethyl)pyridin-4-yl]oxy}biphenyl-4-yl)pyrazin-2-amine] | 27.4 | 117
Nc1ncc(-c2ccc(-c3ccccc3Oc3nccc(C(F)(F)F)n3)cc2F)cn1 [Example 613, 5-(3-Fluoro-2′-{[4-(trifluoromethyl)pyrimidin-2-yl]oxy}biphenyl-4-yl)pyrimidin-2-amine] | 215 | 556
N#Cc1cccc(Oc2ccccc2-c2ccc(-c3cnc(N)cn3)c(F)c2)n1 [Example 619, 6-{[4′-(5-Aminopyrazin-2-yl)-3′-fluorobiphenyl-2-yl]oxy}pyridine-2-carbonitrile] | 3.4 | 45.1
Cc1nc(N)cc(Oc2ccccc2-c2ccc(-c3cnc(N)nc3)c(F)c2)n1 [Example 622, 5-{2′-[(6-Amino-2-methylpyrimidin-4-yl)oxy]-3-fluorobiphenyl-4-yl}pyrimidin-2-amine] | 46.1 | 340
N#Cc1ccc(Oc2ccccc2-c2ccc(-c3cnc(N)cn3)c(F)c2)nc1 [Example 626, 6-{[4′-(5-Aminopyrazin-2-yl)-3′-fluorobiphenyl-2-yl]oxy}pyridine-3-carbonitrile] | 6.2 | 45.3
N#Cc1ccc(Oc2ccccc2-c2ccc(-c3cnc(N)nc3)c(F)c2)nc1 [Example 627, 6-{[4′-(2-Aminopyrimidin-5-yl)-3′-fluorobiphenyl-2-yl]oxy}pyridine-3-carbonitrile] | 43.7 | 366
Nc1cnc(-c2ccc(-c3ccccc3Oc3cc(C4CC4)ncn3)cc2F)cn1 [Example 636, 5-{2′-[(6-Cyclopropylpyrimidin-4-yl)oxy]-3-fluorobiphenyl-4-yl}pyrazin-2-amine] | 4.6 | 107
Nc1cc(Oc2ccccc2-c2ccc(-c3cnc(N)nc3)c(F)c2)ccn1 [Example 639, 5-{2′-[(2-Aminopyridin-4-yl)oxy]-3-fluorobiphenyl-4-yl}pyrimidin-2-amine] | 7.2 | 67

Continued by falling Ki [1], values first:

Ki [1] [nM] | IC50 [2] [nM] | SMILES
249 | 563 | Nc1ncc(-c2ccc(-c3ccccc3Oc3ccnc(C(F)(F)F)c3)cc2F)cn1 [Example 611, 5-(3-Fluoro-2′-{[2-(trifluoromethyl)pyridin-4-yl]oxy}biphenyl-4-yl)pyrimidin-2-amine]
200 | 583 | Nc1ncc(-c2ccc(-c3ccc(C(F)(F)F)cc3Oc3ncccn3)cn2)cn1 [Example 564, 5-{5-[2-(Pyrimidin-2-yloxy)-4-(trifluoromethyl)phenyl]pyrridn-2-yl}pyrimidin-2-amine]
138 | 152 | Nc1cnc(-c2ccc(-c3ccc(C(F)(F)F)cc3CNCCO)cc2F)cn1 [Example 607, 2-({[4′-(5-Aminopyrazin-2-yl)-3′-fluoro-4-(trifluoromethyl)biphenyl-2-yl]methyl}amino)ethanol]
70 | 335 | Cc1cc(-c2ccccc2S(=O)(=O)NC(C)(C)C)ccc1-c1cnc(N)cn1 [Example 569, 4′-(5-Aminopyrazin-2-yl)-N-tert-butyl-3′-methylbiphenyl-2-sulfonamide]
60 | 2820 | CC(C)(C)NS(=O)(=O)c1ccccc1-c1ccc(-c2cn3c(N)cccc3n2)c(F)c1 [Example 581, 4′-(5-Aminoimidazo[1,2-a]pyridin-2-yl)-N-tert-butyl-3′-fluorobiphenyl-2-sulfonamide]
55 | 5000 | CC(C)(C)NS(=O)(=O)c1ccccc1-c1ccc(-c2cn3cccc(F)c3n2)c(F)c1 [Example 580, N-tert-Butyl-3′-fluoro-4′-(8-fluoroimidazo[1,2-a]pyridin-2-yl)biphenyl-2-sulfonamide]
35 | 1180 | COc1cc(-c2ccccc2S(=O)(=O)NC(C)(C)C)ccc1-c1cnc(N)cn1 [Example 570, 4′-(5-Aminopyrazin-2-yl)-N-tert-butyl-3′-methoxybiphenyl-2-sulfonamide]
28.7 | 53.9 | Cc1cc(C)nc(Oc2ccccc2-c2ccc(-c3cnc(N)cn3)c(F)c2)n1 [Example 608, 5-{2′-[(4,6-Dimethylpyrimidin-2-yl)oxy]-3-fluorobiphenyl-4-yl}pyrazin-2-amine]
25 | 956 | CCN(CC)S(=O)(=O)c1ccccc1-c1ccc(-c2csc(N)n2)c(F)c1 [Example 578, 4′-(2-Amino-1,3-thiazol-4-yl)-N,N-diethyl-3′-fluorobiphenyl-2-sulfonamide]
18.8 | 398 | Nc1ncc(-c2ccc(-c3ccccc3Oc3cc(C4CC4)ncn3)cc2F)cn1 [Example 637, 5-{2′-[(6-Cyclopropylpyrimidin-4-yl)oxy]-3-fluorobiphenyl-4-yl}pyrimidin-2-amine]
14.6 | 42 | Nc1cnc(-c2ccc(-c3ccccc3Oc3nccc(C(F)(F)F)n3)cc2F)cn1 [Example 612, 5-(3-Fluoro-2′-{[4-(trifluoromethyl)pyrimidin-2-yl]oxy}biphenyl-4-yl)pyrazin-2-amine]
14.6 | 211 | N#Cc1cccc(Oc2ccccc2-c2ccc(-c3cnc(N)nc3)c(F)c2)n1 [Example 618, 6-{[4′-(2-Aminopyrimidin-5-yl)-3′-fluorobiphenyl-2-yl]oxy}pyridine-2-carbonitrile]
10 | 91 | CC(C)(C)NS(=O)(=O)c1ccccc1-c1ccc(-c2csc(N)n2)c(F)c1 [Example 577, 4′-(2-Amino-1,3-thiazol-4-yl)-N-tert-butyl-3′-fluorobiphenyl-2-sulfonamide]
8 | 116 | CC(C)(C)NS(=O)(=O)c1ccccc1-c1ccc(-c2coc(N)n2)c(F)c1 [Example 576, 4′-(2-Amino-1,3-oxazol-4-yl)-N-tert-butyl-3′-fluorobiphenyl-2-sulfonamide]
7.8 | 173 | Nc1cnc(-c2ccc(-c3ccccc3Oc3cccc(C(F)(F)F)n3)cc2F)cn1 [Example 625, 5-(3-Fluoro-2′-{[6-(trifluoromethyl)pyridin-2-yl]oxy}biphenyl-4-yl)pyrazin-2-amine]
5 | 101 | Nc1ccc(Oc2ccccc2-c2ccc(-c3cnc(N)nc3)c(F)c2)nc1 [Example 621, 5-{2′-[(5-Aminopyridin-2-yl)oxy]-3-fluorobiphenyl-4-yl}pyrimidin-2-amine]
4.9 | 93.5 | Cc1nc(N)cc(Oc2ccccc2-c2ccc(-c3cnc(N)cn3)c(F)c2)n1 [Example 623, 6-{[4′-(5-Aminopyrazin-2-yl)-3′-fluorobiphenyl-2-yl]oxy}-2-methylpyrimidin-4-amine]
1.9 | 97.8 | Nc1cnc(-c2ccc(-c3ccc(C(F)(F)F)cc3CN3CCOCC3)cc2F)cn1 [Example 605, 5-[3-Fluoro-2′-(morpholin-4-ylmethyl)-4′-(trifluoromethyl)biphenyl-4-yl]pyrazin-2-amine]
1.9 | 13.2 | Nc1ccc(Oc2ccccc2-c2ccc(-c3cnc(N)cn3)c(F)c2)nc1 [Example 620, 5-{2′-[(5-Aminopyridin-2-yl)oxy]-3-fluorobiphenyl-4-yl}pyrazin-2-amine]
1.4 | 14.8 | Nc1cnc(-c2ccc(-c3ccccc3Oc3ccnc(N)c3)cc2F)cn1 [Example 638, 5-{2′-[(2-Aminopyridin-4-yl)oxy]-3-fluorobiphenyl-4-yl}pyrazin-2-amine]
0.6 | 16.7 | Nc1cnc(-c2ccc(-c3ccccc3-c3ccc(-c4cnc(N)cn4)c(F)c3)cc2F)cn1 [Example 602, 5,5′-(3,3″-Difluoro-1,1′:2′,1″-terphenyl-4,4″-diyl)dipyrazin-2-amine]
